Measurements from US20070122849A1, “Rhesus monkey P2X7 purinergic receptor and uses thereof” (priority 2005, published 2007).
pEC50: −log10 of the molar value.

Experiments:
[1] = test system: rhP2X7 receptor; test: rhP2X7 receptor activity in stably transfected HEK293 cells (calcium flux and change in membrane potential after agonist activation); format: cell-based, Macaca mulatta (Rhesus monkey); settings: recombinant rhP2X7 receptor
Description: RhP2X7 receptor activity in the stably transfected HEK293 cells was monitored by measuring calcium flux and change in membrane potential subsequent to activation with potent agonists (ATP, Bz-ATP). The membrane potential was measured using the following protocol.
Stably transfected recombinant HEK293 cells were plated into the wells of a 384-well Costar plates (25 μL/well) in growth medium (DMEM without pyruvate (Invitrogen-11965-084) with 10% FBS (Invitrogen 10082-139), 100 U/ml P/S (Invitrogen 15140-148), and 100 ug/mL hygromycin (Roche, 843555) and the plates incubated for 24 hours at 37° C., 5% CO2. Then, 25 μL of membrane potential buffer (Blue dye, Molecular Devices, Sunnyvale, Calif.) was added to the medium and the cells incubated for 30 minutes at 37° C., 5% CO2. Next, about 30 to 100 nL of either analyte or antagonist control or 10 μL agonist 3′-O-(4-benzoylbenzoyl)-ATP (Bz-ATP) (at an EC80) was added to the medium in separate wells of the plates. After incubating the plates for 30 minutes at 37° C., 5% CO2, fluorescence was read using a fluorometric plate reader (FLIPR, Molecular Devices). Data were analyzed using the formula EC50=using (Max−Min); Signal to Noise Ratio (S/B)=Max/Min; Z′ Factor=1−[3*SD of Max)+(3*SD of Min)/(mean of Max−mean of Min).
Calcium flux was measured using the following FLIPR Calcium Flux Assay protocol (Molecular Devices, Sunnyvale, Calif.). […]

[2] = test system: rhP2X7 receptor; test: calcium flux protocol for high throughput screen using cells that express the rhP2X7 receptor; format: cell-based, Macaca mulatta (Rhesus monkey); settings: agonist used in the example screening protocol; source of the value not stated
Description: The following is an example of a calcium flux protocol that can be used in a high throughput screen using cells that express the rhP2X7 receptor. The cells are grown to about 75-85% confluence, rinsed with DPBS (5.33 mM KCl, 0.44 mM KH2PO4, 0.3 mM Na2HPO4, 4 mM NaHCO3, 0.1% Glucose, 138 mM N-methyl glucamine), and dissociated with 0.05% trypsin. Then, about 20,000 cells are plated into multiple of the wells of multiwell plates in complete growth medium. The cells are incubated at 37° C. and 5% CO2 for about 20 to 24 hours. Next, about 20 μL FLUO-4 loading buffer (Invitrogen) is added to each of the wells and the cells incubated at RT for 60 minutes. Then, about 10 μL aliquots of each analyte to be tested (final concentration in DMSO about 0.1%) diluted in TR-40 quenching solution (Sigma #T2397) is added to a well containing cells. Controls include antagonists such as KN-62 and Ox-ATP and agonists such as Bz-ATP (at an EC80). The cells are incubated for about 10 minutes at RT.

| pEC50 [2] | SMILES | pEC50 [1] |
| --- | --- | --- |
| – | Nc1ncnc2c1ncn2[C@@H]1O[C@H](COP(=O)(O)OP(=O)(O)OP(=O)(O)O)[C@@H](O)[C@H]1O [ATP] | ~2.52 |
| – | Nc1ncnc2c1ncn2[C@@H]1O[C@H](COP(=O)(O)OP(=O)(O)OP(=O)(O)O)[C@@H](OC(=O)c2ccc(C(=O)c3ccccc3)cc2)[C@H]1O [Bz-ATP, 3′-O-(4-benzoylbenzoyl)-ATP] | ~3.82 |
| 3.46 | Nc1ncnc2c1ncn2[C@@H]1O[C@H](COP(=O)(O)CP(=O)(O)OP(=O)(O)O)[C@@H](O)[C@H]1O [a,b-methylene ATP] | – |
